According to the NIST ThermoML archive (doi:10.1016/j.jct.2006.09.003):

Details: Fluid (supercritical or subcritical phases), Bellows volumetry

CCCC [butane]
mass density [kg/m3]
Details	280 K	300 K	320 K	340 K	360 K	380 K
1000 kPa	595.47	572.94	548.24	521.26	–	–
2000 kPa	596.86	574.58	550.53	524.21	494.28	456.63
3000 kPa	598.22	576.27	552.73	527.06	498.49	463.53
5000 kPa	600.88	579.56	556.84	532.46	505.91	474.94
10000 kPa	607.05	586.77	566.09	544.06	520.98	495.21
20000 kPa	617.68	599.44	580.87	561.99	542.91	522.42
30000 kPa	626.91	610.13	593.19	576.2	559.24	541.49
40000 kPa	635.29	619.89	603.68	588.27	572.58	556.53
50000 kPa	642.77	628.14	612.97	598.47	584.17	569.05
60000 kPa	649.44	635.82	621.23	607.64	593.9	580.01
70000 kPa	655.79	642.36	628.85	615.81	602.93	589.59
80000 kPa	661.73	648.71	635.85	623.32	610.9	598.34
90000 kPa	667.23	654.83	642.47	630.37	618.47	606.19
100000 kPa	672.51	660.41	648.38	636.58	625.39	613.44
120000 kPa	682.08	670.68	659.38	648.45	637.62	626.58
140000 kPa	690.89	680.05	669.21	658.64	648.76	638.25
160000 kPa	698.82	688.48	678.31	668.16	658.47	648.59
180000 kPa	706.38	696.25	686.49	676.9	667.68	658.14
200000 kPa	713.34	703.51	694.12	684.85	676.03	666.86
